Patent US12612416B2, “Modulators of cystic fibrosis transmembrane conductance regulator” (VERTEX PHARMACEUTICALS INCORPORATED, priority 2020, dated 2026)

Molecular target: CFTR-mediated chloride transport in human intestinal epithelial enteroid cells (Homo sapiens, UniProt P13569)
Assay: Membrane potential dye, Enteroid Assay B
Type: cell-based
Conditions: for Ent. B Max Activity: % of chloride transport of triple combination control: 1 μM (14S)-8-[3-(2-{Dispiro[2.0.2.1]heptan-7-yl}ethoxy)-1H-pyrazol-1-yl]-12,12-dimethyl-...-2,2,4-trione, 3 μM tezacaftor, 300 nM acute ivacaftor; for EC50: enteroid cells, 18-24 hours incubation, acute 10 μM forskolin and 300 nM ivacaftor, read-out: Ent. B EC50
Procedure: Base medium (ADF+++) consisted of Advanced DMEM/Ham's F12, 2 mM Glutamax, 10 mM HEPES, […] penicillin/streptomycin.
Intestinal enteroid maintenance medium (IEMM) consisted of ADF+++, 1×B27 supplement, 1×N2 supplement, 1.25 mM N-acetyl cysteine, 10 mM Nicotinamide, 50 ng/mL hEGF, 10 nM Gastrin, 1 μg/mL hR-spondin-1, 100 ng/mL hNoggin, TGF-b type 1 inhibitor A-83-01, 100 μg/mL Primocin, 10 μM P38 MAPK inhibitor SB202190.
Bath 1 Buffer consisted of 1 mM MgCl2, 160 mM NaCl, 4.5 mM KCl, 10 mM HEPES, 10 mM Glucose, 2 mM CaCl2).
Chloride Free Buffer consisted of 1 mM Magnesium Gluconate, 2 mM Calcium Gluconate, 4.5 mM Potassium Gluconate, 160 mM Sodium Gluconate, 10 mM HEPES, 10 mM Glucose.
BathI Dye Solution consisted of Bath 1 Buffer, 0.04% Pluronic F127, 20 μM Methyl Oxonol, 30 μM CaCCinh-A01, 30 μM Chicago Sky Blue.
Chloride Free Dye Solution consisted of Chloride Free Buffer, 0.04% Pluronic F127, 20 μM Methyl Oxonol, 30 μM CaCCinh-A01, 30 μM Chicago Sky Blue.
Chloride Free Dye Stimulation Solution consisted of Chloride Free Dye Solution, 10 μM forskolin, 100 μM IBMX, and 300 nM Compound III.
Human intestinal epithelial enteroid cells were obtained from the Hubrecht Institute for Developmental Biology and Stem Cell Research, Utrecht, The Netherlands and expanded in T-Flasks as previously described (Dekkers J F, Wiegerinck C L, de Jonge H R, Bronsveld I, Janssens H M, de Winter-de Groot K M, Brandsma A M, de Jong N W M, Bijvelds M J C, Scholte B J, Nieuwenhuis E E S, van den Brink S, Clevers H, van der Ent C K, Middendorp S and M Beekman J M. A functional CFTR assay using primary cystic fibrosis intestinal organoids. Nat Med. 2013 July; 19(7):939-45.).
Cells were recovered in cell recovery solution, collected by centrifugation at 650 rpm for 5 minutes at 4° C., resuspended in TrypLE and incubated for 5 minutes at 37° C. Cells were then collected by centrifugation at 650 rpm for 5 minutes at 4° C. and resuspended in IEMM containing 10 μM ROCK inhibitor (RI). The cell suspension was passed through a 40 μm cell strainer and resuspended at 1×10^6 cells/mL in IEMM containing 10 μM RI. Cells were seeded at 5000 cells/well into multi-well plates and incubated for overnight at 37° C., 95% humidity and 5% CO2 prior to assay.
Enteroid cells were incubated with test compound in IEMM for 18-24 hours at 37° C., 95% humidity, and 5% C02. […] Briefly, cells were washed 5 times in Bath 1 Buffer. Bath 1 Dye Solution was added and the cells were incubated for 25 minutes at room temperature. Following dye incubation, cells were washed 3 times in Chloride Free Dye Solution. Chloride transport was initiated by addition of Chloride Free Dye Stimulation Solution and the fluorescence signal was read for 15 minutes. […] Chloride transport was then expressed as a percentage of the chloride transport following treatment with 1 μM (14S)-8-[3-(2-{Dispiro[2.0.2.1]heptan-7-yl}ethoxy)-1H-pyrazol-1-yl]-12,12-dimethyl-2λ^6-thia-3,9,11,18,23-pentaazatetracyclo[17.3.1.111,14.05,10]tetracosa-1(22),5,7,9,19(23),20-hexaene-2,2,4-trione, 3 μM (R)-1-(2,2-difluorobenzo[d][1,3]dioxol-5-yl)-N-(1-(2,3-dihydroxypropyl)-6-fluoro-2-(1-hydroxy-2-methylpropan-2-yl)-1H-indol-5-yl)cyclopropanecarboxamide and 300 nM acute N-[2,4-bis(1,1-dimethylethyl)-5-hydroxyphenyl]-1,4-dihydro-4-oxoquinoline-3-carboxamide triple combination control (% Activity).

CFTR-mediated chloride transport in human intestinal epithelial enteroid cells, sequence (P13569 with tags, fused parts or gaps DEL508-508): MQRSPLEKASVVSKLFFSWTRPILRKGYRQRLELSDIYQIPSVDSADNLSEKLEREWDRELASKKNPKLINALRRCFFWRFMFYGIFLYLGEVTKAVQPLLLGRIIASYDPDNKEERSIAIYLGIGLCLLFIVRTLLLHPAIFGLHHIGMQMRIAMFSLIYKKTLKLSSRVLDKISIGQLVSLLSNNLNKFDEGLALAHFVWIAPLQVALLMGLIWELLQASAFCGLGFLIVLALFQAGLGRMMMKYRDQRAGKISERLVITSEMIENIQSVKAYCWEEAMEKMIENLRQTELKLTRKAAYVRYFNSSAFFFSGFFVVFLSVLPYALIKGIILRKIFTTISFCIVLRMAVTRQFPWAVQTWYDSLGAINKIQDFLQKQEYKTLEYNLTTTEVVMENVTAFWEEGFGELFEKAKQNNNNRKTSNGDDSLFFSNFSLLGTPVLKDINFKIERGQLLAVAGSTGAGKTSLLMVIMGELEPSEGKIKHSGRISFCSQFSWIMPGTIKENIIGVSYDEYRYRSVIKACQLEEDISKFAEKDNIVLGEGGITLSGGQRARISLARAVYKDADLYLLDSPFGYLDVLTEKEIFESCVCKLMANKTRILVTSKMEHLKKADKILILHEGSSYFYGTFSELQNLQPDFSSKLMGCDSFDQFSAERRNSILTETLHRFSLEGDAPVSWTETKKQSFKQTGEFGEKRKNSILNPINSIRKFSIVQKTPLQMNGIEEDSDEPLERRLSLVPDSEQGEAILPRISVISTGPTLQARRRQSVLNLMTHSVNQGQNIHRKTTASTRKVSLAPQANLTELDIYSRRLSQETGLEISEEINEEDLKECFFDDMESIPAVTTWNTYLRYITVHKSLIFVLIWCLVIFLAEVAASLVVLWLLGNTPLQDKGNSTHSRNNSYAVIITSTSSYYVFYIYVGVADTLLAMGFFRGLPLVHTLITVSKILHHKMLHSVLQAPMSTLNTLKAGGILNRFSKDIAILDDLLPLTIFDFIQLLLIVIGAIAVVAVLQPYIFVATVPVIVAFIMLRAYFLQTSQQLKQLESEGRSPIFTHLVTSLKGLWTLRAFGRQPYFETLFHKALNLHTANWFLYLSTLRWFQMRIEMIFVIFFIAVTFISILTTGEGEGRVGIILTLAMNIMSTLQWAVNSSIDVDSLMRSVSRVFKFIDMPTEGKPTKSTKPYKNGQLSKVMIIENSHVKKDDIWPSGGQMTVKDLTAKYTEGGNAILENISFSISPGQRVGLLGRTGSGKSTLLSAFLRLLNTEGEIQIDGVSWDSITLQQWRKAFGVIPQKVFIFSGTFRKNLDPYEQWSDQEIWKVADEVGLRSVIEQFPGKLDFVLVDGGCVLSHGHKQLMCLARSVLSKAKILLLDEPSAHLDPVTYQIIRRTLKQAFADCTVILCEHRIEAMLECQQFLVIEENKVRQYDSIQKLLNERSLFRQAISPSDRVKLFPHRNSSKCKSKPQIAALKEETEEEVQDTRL

Row | SMILES | Ent. B Max Activity | EC50 [nM]
1 | Cc1cccc(C)c1-c1cc2nc(n1)NS(=O)(=O)c1cccc(c1)C(=O)OC[C@@H](CC(C)(C)C)N2c1ccnn1C [Compound 29] | + (+ is <30%) | –
2 | Cc1cccc(C)c1-c1cc2nc(n1)NS(=O)(=O)c1cccc(n1)C(=O)N(C1CC3(CC3)C1)[C@H](CC(C)C)CC2 [Compound 15] | ++ (++ is 30-60%) | < 1000
3 | Cc1cccc(C)c1-c1cc2nc(n1)NS(=O)(=O)c1cccc(c1)C(=O)N(CCCC(C)(C)O)CCC2C (stereo not shown) [Compound 10, 6-(2,6-Dimethylphenyl)-12-(4-hydroxy-4-methyl-pentyl)-9-methyl-2,2-dioxo-2λ6-thia-3,5,12,19-tetrazatricyclo[12.3.1.14,8]nonadeca-1(18),4(19),5,7,14,16-hexaen-13-one] | +++ (+++ is >60%) | 1000 to 3000
4 | Cc1cccc(C)c1-c1cc2nc(n1)NS(=O)(=O)c1cccc(c1)C(=O)N[C@H](CC(C)C)CC2 [Compound 14] | +++ (+++ is >60%) | < 1000
5 | Cc1cccc(C)c1-c1cc2nc(n1)NS(=O)(=O)c1cccc(c1)C(=O)OC[C@@H](CC(C)(C)C)N2Cc1nccc(C(F)(F)F)n1 [Compound 32] | + (+ is <30%) | –
6 | Cc1cccc(C)c1-c1cc2nc(n1)NS(=O)(=O)c1cccc(c1)C(=O)N(Cc1ncccn1)CCC2C (stereo not shown) [Compound 18] | +++ (+++ is >60%) | 1000 to 3000
7 | Cc1cccc(C)c1-c1cc2nc(n1)NS(=O)(=O)c1cccc(c1)C(=O)N(C)CCC2C (stereo not shown) [Compound 17] | +++ (+++ is >60%) | 1000 to 3000
8 | Cc1cccc(C)c1-c1cc2nc(n1)NS(=O)(=O)c1cccc(c1)C(=O)N(Cc1ccc(C(C)(C)O)cc1)CCC2C (stereo not shown) [Compound 16] | +++ (+++ is >60%) | < 1000
9 | Cc1cccc(C)c1-c1cc2nc(n1)NS(=O)(=O)c1cccc(c1)C(=O)N(C1CC3(CC3)C1)CC2Cc1ccc(C(C)(C)C)cc1 (stereo not shown) [Compound 20] | ++ (++ is 30-60%) | < 1000
10 | Cc1cccc(C)c1-c1cc2nc(n1)NS(=O)(=O)c1cccc(c1)C(=O)N(C1CC3(CC3)C1)CCC21CC1 [Compound 41, 6-(2,6-Dimethylphenyl)-2,2-dioxo-12-spiro[2.3]hexan-5-yl-spiro[2λ6-thia-3,5,12,19-tetrazatricyclo[12.3.1.14,8]nonadeca-1(18),4(19),5,7,14,16-hexaene-9,1′-cyclopropane]-13-one] | ++ (++ is 30-60%) | < 1000
11 | Cc1cccc(C)c1-c1cc2nc(n1)NS(=O)(=O)c1cccc(c1)C(=O)N(C1CC3(CC3)C1)CC[C@H]2c1ccc(C(C)(C)C)cc1 [Compound 23] | ++ (++ is 30-60%) | –
12 | Cc1cccc(C)c1-c1cc2nc(n1)NS(=O)(=O)c1cccc(c1)C(=O)N(C1CC3(CC3)C1)CC[C@H]2c1ccc(C(C)(C)C)cc1 [Compound 22] | ++ (++ is 30-60%) | < 1000
13 | Cc1cccc(C)c1-c1cc2nc(n1)NS(=O)(=O)c1cccc(c1)C(=O)N(C1CC3(CC3)C1)CCC2c1ccc(C(C)(C)C)cc1 (stereo not shown) [Compound 19] | ++ (++ is 30-60%) | < 1000
14 | COCCN1CCC2(CC1)CC(N1C(=O)c3cccc(c3)S(=O)(=O)Nc3nc(cc(-c4c(C)cccc4C)n3)CC[C@H]1CC(C)C)C2 [Compound 9, (11S)-6-(2,6-Dimethylphenyl)-11-isobutyl-12-[7-(2-methoxyethyl)-7-azaspiro[3.5]nonan-2-yl]-2,2-dioxo-2λ6-thia-3,5,12,19-tetrazatricyclo[12.3.1.14,8]nonadeca-1(18),4(19),5,7,14,16-hexaen-13-one] | +++ (+++ is >60%) | < 1000
